In patent publication US9034323B2, “Method for control of post-prandial glucose” (Halozyme, Inc., priority 2008, dated 2015):
Where two headings read alike, the source gives them in different places.

Tests used:
[1] = set-up: species or system Yucatan mini pigs; conditions: pig, in vivo; for tmax: sc
Description: The pharmacokinetics (PK) of regular insulin, when subcutaneously administered at two different concentrations, both alone and co-administered with rHuPH20, was assessed in the porcine model described in Example 10, above. A multiple dose 4-way crossover design study was conducted to compare the PK of regular insulin at concentrations of 20 and 100 U/mL, when administered alone, to the same two concentrations after co-administration with rHuPH20. In each case, a total of 0.2 U/kg of insulin was administered.
Four test articles were prepared for dosing. […] The Insulin-PH20 U100 test article contained 3.69 mg/mL (100 U/mL) regular insulin (Lot # SIHR107; Diosynth Biotechnologies) and 20 μg/mL (approximately 2400 U/mL) rHuPH20 in 25 mM Tris, 120 mM NaCl, 0.01% Polysorbate 80, pH 7.3.
The group assignment was maintained for cycles 1 and 2.
The serum IRI concentrations were determined for each serum sample by interpolation from a standard curve using StatLIA® assay analysis software (Brendan Technologies, Carlsbad, Calif.). […] These baselines were then subtracted from the actual IRI concentrations measured at each timepoint to determine the baseline-adjusted IRI concentration.
Serum IRI versus time data were modeled by non-compartmental analysis using WinNonlin Professional model 200 (Version 5.2, Pharsight Corp., Mountain View, Calif.) and the PK parameters calculated. […] All analyses were performed using a mixed model with fixed effects for treatment. A compound symmetric covariance matrix among repeated observations for each animal was assumed. Analyses for Cmax and all AUC endpoints were performed using log-transformed values with values of zero replaced by 1 prior to log transformation (zero on the log scale). The time based endpoints were analyzed on the original linear scale.
N=16 pigs unless otherwise noted.

[2] = test system: plasma glucose (glucose infusion rate to maintain 90-110 mg/dL); experiment: Glucose infusion rate (GIR) pharmacodynamics, Hyperinsulinemic-Euglycemic Clamp (Example 1a); format: in vivo, human; conditions: Mean
Description: The procedure consisted of initially obtaining the subject's weight and height and measuring the vital signs after resting in a sitting position for 5 minutes. Both arms were placed in heating pads to dilate the veins and IV catheters were then inserted. A catheter was placed into the antecubital vein of one arm for infusion of Dextrose 20% via two separate stop cocks. The other […] catheter was placed into the other arm for sampling of arterialized blood for glucose measurements. The heating pad can be removed from the glucose infusion site, but the retrograde catheter site was maintained at 65° C. An initial blood sample was obtained to measure baseline glucose 30 minutes before injection of the insulin preparations.

[3] = background, cited from earlier work
[4] = test system: dispersion of trypan blue dye; experiment: Trypan blue dye dispersion assay in mice (Example 9); format: in vivo, NCr nu/nu homozygous mice; conditions: for Dye Dispersion Areas: intradermal, trypan blue with 5 Units/mL Humulin insulin, enzyme 10 U/mL (Chondroitinase AC 1 U/mL, Strep lyase 100 U/mL), group mean; for increase in dye dispersion area compared to buffer only: mixed with trypan blue and Humulin insulin
Description: (§1) The ability of different hyaluronan degrading enzymes to act as a dispersion agent was assessed in vivo. A dispersion assay in mice was used to assess the ability of different hyaluronan degrading enzyme to act as dispersion agents of trypan blue, and also to assess the ability of the enzymes to enhance the efficacy of co-administered insulin in reducing blood glucose levels. The hyaluronan degrading enzymes assayed included rHuPH20, pegylated PH20 (PEG PH20), Hyal 1, Chondroitinase ABC, Chondroitinase AC and Streptomyces hyalurolyticus lyase. […] Both the area of dispersion of the trypan blue and the blood glucose levels were then measured. […] The ability of a low pH buffer (pH 4.5) to act as a dispersion agent also was examined.
(§2) Nine groups of NCr nu/nu homozygous mice, approximately 10 weeks of age and with body weights of 21-25 g, with 3 mice per group, were anesthetized by intraperitoneal injection of ketamine/xylazine (10:1 mixture in saline). […] The dispersion of the trypan blue dye was then measured by a caliper at 2.5, 5, 10, 15 and 20 minutes post injection. The dye dispersion area (mm^2) was calculated by multiplying the longest axis M1 (length of the dye front) and M2 (width of the dye front) by ¼π (M1M2×¼π). The blood glucose levels were measured using a glucometer at 0, 5, 10, 15 and 20 minutes

blood glucose = experiment: Blood glucose levels in mice after intradermal Humulin insulin with hyaluronan degrading enzymes (Example 9); format: in vivo, NCr nu/nu homozygous mice; conditions: for Blood Glucose Level: group mean
Description: as §1, §2

[5] = 5 min post injection, intradermal with 5 Units/mL Humulin insulin, enzyme 10 U/mL (Chondroitinase AC 1 U/mL, Strep lyase 100 U/mL)
[6] = 10 min post injection, intradermal with 5 Units/mL Humulin insulin, enzyme 10 U/mL (Chondroitinase AC 1 U/mL, Strep lyase 100 U/mL)
[7] = 15 min post injection, intradermal with 5 Units/mL Humulin insulin, enzyme 10 U/mL (Chondroitinase AC 1 U/mL, Strep lyase 100 U/mL)
[8] = 20 min post injection, intradermal with 5 Units/mL Humulin insulin, enzyme 10 U/mL (Chondroitinase AC 1 U/mL, Strep lyase 100 U/mL)

Work on Insulin 20 U yielded a tmax [1] of 0.95 ± 0.7 h.

With Humalog ® alone the “GIR AUC 0-60 min” value ([2]; Dosing Sequence 1) was 1910 min * mL/hr, the “GIR AUC 0-120 min” value ([2]; Dosing Sequence 1) was 9860 min * mL/hr and the “GIR AUC 0-180 min” value ([2]; Dosing Sequence 1) was 20700 min * mL/hr. For the same molecule, the “GIR AUC 0-240 min” value ([2]; Dosing Sequence 1) was 32580 min * mL/hr, the “GIR AUC 0-360 min” value ([2]; Dosing Sequence 1) was 51650 min * mL/hr and the tmax ([2]; Dosing Sequence 1) was 185. The “GIR AUC 0-60 min” value ([2]; Dosing Sequence 2) was 2260 min * mL/hr, the “GIR AUC 0-120 min” value ([2]; Dosing Sequence 2) was 9670 min * mL/hr and the “GIR AUC 0-180 min” value ([2]; Dosing Sequence 2) was 19220 min * mL/hr. The “GIR AUC 0-240 min” value ([2]; Dosing Sequence 2) was 29120 min * mL/hr, the “GIR AUC 0-360 min” value ([2]; Dosing Sequence 2) was 44730 min * mL/hr and the tmax ([2]; Dosing Sequence 2) was 200. The “GIR AUC 0-60 min” value ([2]; Dosing Sequence all) was 2080 min * mL/hr, the “GIR AUC 0-120 min” value ([2]; Dosing Sequence all) was 9760 min * mL/hr and the “GIR AUC 0-180 min” value ([2]; Dosing Sequence all) was 19960 min * mL/hr. For the same molecule, the “GIR AUC 0-240 min” value ([2]; Dosing Sequence all) was 30850 min * mL/hr, the “GIR AUC 0-360 min” value ([2]; Dosing Sequence all) was 48190 min * mL/hr and the tmax ([2]; Dosing Sequence all) was 193.

Insulin 100 U showed a tmax [1] of 1.07 ± 0.817 h.

With “Insulin U100: Undiluted Humulin R insulin, 100 U/mL” the AUC0-15 [1] was 20 pmol·min/L, the AUC0-30 [1] was 222 pmol·min/L and the AUClast [1] was 9,021 pmol×min/L. The tmax [1] was 1.07 h.

In the case of insulin glargine, the Duration [3] is given as 28 h, the Onset [3] is given as 4 to 6 h and the Peak [3] is given as 18 to 28 h.

For “Insulin U20: Humulin R insulin diluted 1:5 with sterile diluent to 20 U/mL”, the AUC0-15 [1] was 80 pmol·min/L, the AUC0-30 [1] was 791 pmol·min/L and the AUClast [1] was 20,820 pmol×min/L. The tmax [1] was 0.95 h.

In the case of insulin glulisine, the Duration [3] is given as 3 to 4 h, the Peak [3] is given as 0.75 to 1.5 h and the Onset ([3]; subcutaneous insulin) is given as 0.083 to 0.25 h.

For “detemir: Long-lasting insulin, an analog”, the Duration [3] is listed as 28 h, the Onset [3] is listed as 4 to 6 h and the Peak [3] is listed as 18 to 28 h.

In the case of Chondroitinase ABC, the “Dye Dispersion Areas” value ([4]; 5 min post injection) is reported as 75.06 mm^2, the “average dispersion area of trypan blue dye” value (“average dispersion area” for short) ([4]; 5 minutes after injection) is reported as roughly 75 mm^2 and the “Dye Dispersion Areas” value ([4]; 10 min post injection) is reported as 78.60 mm^2. For the same molecule, the “average dispersion area” value ([4]; 10 minutes after injection) was roughly 79 mm^2, the “Dye Dispersion Areas” value ([4]; 15 min post injection) was 81.44 mm^2 and the “average dispersion area” value ([4]; 15 minutes after injection) was roughly 81 mm^2. For the same molecule, the “Dye Dispersion Areas” value ([4]; 20 min post injection) was 87.85 mm^2, the “average dispersion area” value ([4]; 20 minutes after injection) was roughly 88 mm^2 and the “average dispersion area” value ([4]; […] after injection) was “about 57 mm^2”. The “Dye Dispersion Areas” value ([4]; […] post injection) was 56.85 mm^2, the “increase in dye dispersion area compared to buffer only” value [4] was “significant increase” and the “Blood Glucose Level” value (blood glucose; 0 min (prior to injection)) was 129.67 mg/dL. For the same molecule, the “Blood Glucose Level” value (blood glucose; [5]) was 123.67 mg/dL, the “Blood Glucose Level” value (blood glucose; [6]) was 65.00 mg/dL and the “Blood Glucose Level” value (blood glucose; [7]) was 44.67 mg/dL. The “Blood Glucose Level” value (blood glucose; [8]) was 21.00 mg/dL and the “reduction of blood glucose levels compared with Humulin insulin alone” value (blood glucose; co-administered with Humulin insulin) was “appeared to reduce levels even faster”.

B1: Hyal I (protein, UniProt Q12794 22-435, looked up)
Hyaluronidase-1: FRGPLLPNRPFTTVWNANTQWCLERHGVDVDVSVFDVVANPGQTFRGPDMTIFYSSQLGTYPYYTPTGEPVFGGLPQNASLIAHLARTFQDILAAIPAPDFSGLAVIDWEAWRPRWAFNWDTKDIYRQRSRALVQAQHPDWPAPQVEAVAQDQFQGAARAWMAGTLQLGRALRPRGLWGFYGFPDCYNYDFLSPNYTGQCPSGIRAQNDQLGWLWGQSRALYPSIYMPAVLEGTGKSQMYVQHRVAEAFRVAVAAGDPNLPVLPYVQIFYDTTNHFLPLDELEHSLGESAAQGAAGVVLWVSWENTRTKESCQAIKEYMDTTLGPFILNVTSGALLCSQALCSGHGRCVRRTSHPKALLLLNPASFSIQLTPGGGPLSLRGALSLEDQAQMAVEFKCRCYPGWQAPWCERKSMW
For B1, the “Dye Dispersion Areas” value ([4]; 5 min post injection) was 36.27 mm^2, the “Dye Dispersion Areas” value ([4]; 10 min post injection) was 39.60 mm^2 and the “Dye Dispersion Areas” value ([4]; 15 min post injection) was 46.41 mm^2. For the same molecule, the “Dye Dispersion Areas” value ([4]; 20 min post injection) was 48.21 mm^2, the “Dye Dispersion Areas” value ([4]; […] post injection) was 31.53 mm^2 and the “Blood Glucose Level” value (blood glucose; 0 min (prior to injection)) was 155.67 mg/dL. For the same molecule, the “Blood Glucose Level” value (blood glucose; [5]) was 201.33 mg/dL, the “Blood Glucose Level” value (blood glucose; [6]) was 144.33 mg/dL and the “Blood Glucose Level” value (blood glucose; [7]) was 77.00 mg/dL. The “Blood Glucose Level” value (blood glucose; [8]) was 52.67 mg/dL.

B2: Hyal 1: Hyaluronan degrading enzyme; acid-active human hyaluronidase (protein, listed as Homo sapiens)
chain: MAAHLLPICALFLTLLDMAQGFRGPLLPNRPFTTVWNANTQWCLERHGVDVDVSVFDVVANPGQTFRGPDMTIFYSSQLGTYPYYTPTGEPVFGGLPQNASLIAHLARTFQDILAAIPAPDFSGLAVIDWEAWRPRWAFNWDTKDIYRQRSRALVQAQHPDWPAPQVEAVAQDQFQGAARAWMAGTLQLGRALRPRGLWGFYGFPDCYNYDFLSPNYTGQCPSGIRAQNDQLGWLWGQSRALYPSIYMPAVLEGTGKSQMYVQHRVAEAFRVAVAAGDPNLPVLPYVQIFYDTTNHFLPLDELEHSLGESAAQGAAGVVLWVSWENTRTKESCQAIKEYMDTTLGPFILNVTSGALLCSQALCSGHGRCVRRTSHPKALLLLNPASFSIQLTPGGGPLSLRGALSLEDQAQMAVEFKCRCYPGWQAPWCERKSMW
modifications: Hyaluronidase-1 [Precursor]
For B2, the “increase in dye dispersion area compared to buffer only” value [4] was “no statistically significant increase”.
